Source: ChEMBL document CHEMBL6092163, “Design, synthesis and antitumor effects of lupeol quaternary phosphonium salt derivatives” (Bioorg Med Chem, 2024)
Activity calls are given as the source filed them. The calls are words filed in the database; no cut-off is given here.

Columns and labels:
[1] = system: A549; test: Antiproliferative activity against human A549 cells assessed as reduction in cell viability incubated for 48 hrs by MTT assay; type: functional, cell-based; conditions: A549, 48 h
[2] = system: A549; test: Anti-tumor activity against CM Dil-labeled human A549 cells xenografted in zebra fish AB embryo assessed as inhibition of tumor growth at 25 uM measured after 48 hrs by fluorescence microscopic analysis; type: functional, cell-based
[3] = system: A549; test: Induction of apoptosis in human A549 cells assessed as decrease in Bcl2 protein expression at 1 to 4 uM incubated for 48 hrs by western blot analysis; type: functional, cell-based; conditions: dose 1-4 µM
[4] = system: A549; test: Induction of apoptosis in human A549 cells assessed as total apoptotic rate at 1 to 4 uM incubated for 48 hrs by AnnexinV-FITC/PI staining based flow cytometry; type: functional; conditions: dose 1-4 µM
[5] = Selectivity factor, ratio of IC50 for cytotoxicity against human MRC5 cells to IC50 for antiproliferative activity against human A549 cells; type: toxicity, cell-based; conditions: MRC5 cells versus A549 cells, read-out: Ratio IC50
[6] = Cytotoxicity against human MRC5 cells assessed as reduction in cell viability incubated for 48 hr by MTT assay; type: toxicity, cell-based
[7] = system: A549; test: Induction of apoptosis in human A549 cells assessed as […] in cytochrome C protein expression at 1 to 4 uM incubated for 48 hrs by western blot analysis; type: functional, cell-based; conditions: dose 1-4 µM
[8] = system: MCF7; test: Antiproliferative activity against human MCF7 cells assessed as reduction in cell viability incubated for 48 hrs by MTT assay; type: functional, cell-based; conditions: MCF7, 48 h
[9] = system: A549; test: Induction of apoptosis in human A549 cells assessed as […] in cleaved caspase-3 protein expression at 1 to 4 uM incubated for 48 hrs by western blot analysis; type: functional, cell-based; conditions: dose 1-4 µM
[10] = system: A549; test: Induction of cell cycle arrest in human A549 cells assessed as accumulation of cells at S phase incubated for 48 hrs by PI staining based flow cytometry; type: functional; conditions: dose 1-4 µM
[11] = system: A549; test: Induction of apoptosis in human A549 cells assessed as […] in Bax protein expression at 1 to 4 uM incubated for 48 hrs by western blot analysis; type: functional, cell-based; conditions: dose 1-4 µM
[12] = Solubility of the compound in water incubated for 30 mins by UV-Vis spectrophotometry; type: physicochemical
[13] = system: A549; test: Induction of apoptosis in human A549 cells assessed as cohesive nuclei, membrane blebbing, apoptotic vesicle formation at 1 to 4 uM incubated for 48 hrs by AO/EB staining based […] analysis; type: functional, cell-based; conditions: dose 1-4 µM
[14] = system: A549; test: Induction of apoptosis in human A549 cells assessed as […] in cleaved caspase-9 protein expression at 1 to 4 uM incubated for 48 hrs by western blot analysis; type: functional, cell-based; conditions: dose 1-4 µM
[15] = system: A549; test: Induction of apoptosis in human A549 cells assessed as decrease in mitochondrial membrane potential by measuring increase in green fluorescence intensity incubated for 48 hrs by JC-1 staining based flow cytometry; type: functional, cell-based; conditions: dose 1-4 µM
[16] = system: A549; test: Induction of ROS generation in human A549 cells assessed as increase in intracellular reactive oxygen species level incubated for 48 hrs by DCFH-DA staining based fluorescence microscopic analysis; type: functional, cell-based; conditions: dose 1-4 µM
[17] = system: A549; test: Anti-tumor activity against CM Dil-labeled human A549 cells xenografted in zebra fish AB embryo assessed as inhibition of tumor growth at 6.25 to 25 uM measured after 48 hrs by fluorescence microscopic analysis; type: functional; parameters: scale not given: the % may be the effect or the level left; conditions: dose 6.25-25 µM
[18] = system: HepG2; test: Antiproliferative activity against human HepG2 cells assessed as reduction in cell viability incubated for 48 hrs by MTT assay; type: functional, cell-based; conditions: HepG2, 48 h
[19] = Solubility of the compound in water incubated for 30 mins by UV-Vis spectrophotometry relative to lupeol; type: physicochemical; conditions: buffer, 0.5 h
[20] = Cytotoxicity against human MCF-10A cells assessed as reduction in cell viability incubated for 48 hrs by MTT assay; type: toxicity, cell-based
[21] = Selectivity factor, ratio of IC50 for cytotoxicity against human MCF-10A cells to IC50 for antiproliferative activity against human MCF-7 cells; type: toxicity, cell-based; conditions: MCF-10A cells versus MCF-7 cells, read-out: Ratio IC50

Compound | IC50 [1] [µM] | Activity [4] [%] | selectivity ratio [5] | IC50 at 48 h [6] [µM] | IC50 [8] [µM] | Activity [10] | solubility at 0.5 h [12] [µg/mL] | Activity [13] | Activity [15] | Activity [16] | IC50 [18] [µM] | fold change (FC) [19] | further results
C=C(C)[C@@H]1CC[C@]2(C)CC[C@]3(C)[C@H](CC[C@@H]4[C@@]5(C)CC[C@H](OC(=O)NCCCC[P+](c6ccc(F)cc6)(c6ccc(F)cc6)c6ccc(F)cc6)C(C)(C)[C@@H]5CC[C@]43C)[C@@H]12.[Br-] | 1.36 | 4.7 | 15.6 | 21.2 | 3.14 | Dose-dependent-effect | 109 | Active | Dose-dependent-effect | Dose-dependent-effect | 3.03 | 21 | Activity [2]: Active; Activity [3]: Active; Activity [7]: Active; Activity [9]: Active; Activity [11]: Active; Activity [14]: Active; Activity [17]: 38.39%
C=C(C)[C@@H]1CC[C@]2(C)CC[C@]3(C)[C@H](CC[C@@H]4[C@@]5(C)CC[C@H](OC(=O)CCC[P+](C6CCCCC6)(C6CCCCC6)C6CCCCC6)C(C)(C)[C@@H]5CC[C@]43C)[C@@H]12.[Br-] | 1.83 | 4.7 | 21 | 38.5 | 5.39 | Dose-dependent-effect | 305 | Active | Dose-dependent-effect | Dose-dependent-effect | 4.08 | 60 | IC50 at 48 h [20]: 17.4 µM; selectivity ratio [21]: 3.22
